Row | Compound | melting point [°C]
1 | CCc1cc(Br)cc2nc(C(=O)OC)c(C(=O)OC)c(O)c12 | 115 to 117
2 | COc1ccc(C2(C#Cc3cc(C#N)cc(C#N)c3)CCC(=O)CC2)cc1OC1CCCC1 | 148
3 | CC(C)CC(CS)C(N)=O (configuration not stated) | 147 to 154
4 | COc1cc2c(Nc3ccc(Cl)cc3F)ncnc2cc1OCCNC(=O)OC(C)(C)C | 190 to 191
5 | Cc1cnc2c(c1)CCCC2(C)C(N)=S (configuration not stated) | 164
6 | COc1ccc(Nc2nc(NC3CCCCCC3)nc(Oc3ccc(C(C)=O)cc3Cl)n2)cc1Cl | 186 to 196
7 | CC1CC(=O)Nc2nc(Br)c3ncccc3c21 (configuration not stated) | 251 to 252
8 | CCc1cn(C2OC(CNC(=O)C(C)Oc3cc(OC)c(Cl)cc3Cl)C(O)C2F)c(=O)[nH]c1=O (configuration not stated) | 151 to 156
9 | CCOC(=O)c1cn(-c2ccc(F)cc2F)c2c(F)c(F)c(F)c(F)c2c1=O | 160 to 162
10 | CC(C)c1cccc2c1O[C@@H](C(C)C)C(=O)N2 | 151 to 152
11 | O=C(O)c1c[nH]c2c1C(=O)CCCC2 | 225 to 227
12 | CN(C)S(=O)(=O)n1c(C(F)(F)F)nc2c(Br)cc(C(F)(F)F)cc21 | 147
13 | CC(C)(C)OC(=O)C(=NO)C1=Nc2ccc(Cl)cc2C(c2ccccc2F)=NC1 | 212 to 214
14 | CCCc1cc(NC(=O)c2c(C)nn(C)c2C)c(C)cc1C(OC)(C(F)(F)F)C(F)(F)F | 132 to 134
15 | O=C(CC1CCC1)N[C@H]1CC[C@H](CCN2CCC(c3cccc4c3CCO4)CC2)CC1 | 196
16 | C=C(CN1CCOCC1)C(=O)O | 121 to 125
17 | CCCCCCCCCCCCCCCC(=O)CSC | 38 to 40
18 | NC(=O)CNC(=O)c1cc(-c2cccc3cc(Cc4cc(F)cc(Cl)c4)sc23)ccc1F | 129 to 130
19 | CCOC(=O)N1CCc2c([nH]c3ccc(Cl)cc23)C1C1(C(N)=O)CCC1 (configuration not stated) | 200 to 220
20 | O=C(CCc1cccc2c1NC(=O)CO2)CCc1cccc2c1NC(=O)CO2 | 183 to 185
21 | CCC1(C)OC1(C#N)C(=O)O (configuration not stated) | 139 to 140
22 | N#Cc1cc(C(F)(F)F)nn1-c1ccc(NC(=O)c2ccncc2F)cc1 | 161 to 162
23 | C[C@]1(CN2CCC(NC(=O)Nc3ccc(C(F)(F)F)cc3)CC2)Cn2cc([N+](=O)[O-])nc2O1 | 137 to 140

Row | Compound | melting point [°C]
24 | CC1COc2cccc3[nH]c(=O)n1c23 (configuration not stated) | 137
25 | COC(=O)c1ccc(C(=O)C2C(=O)N(C(N)=O)c3ccc(Cl)cc32)s1 (configuration not stated) | 219 to 221
26 | COc1ccc(-c2cncc(OC3SCC(OC(C)=O)C(OC(C)=O)C3OC(C)=O)c2)cn1 (configuration not stated) | 172
27 | O=C(O)c1cc(F)c(F)c(I)c1F | 122 to 124
28 | Cn1ncc(C(=O)O)c1Cl | 195 to 197
29 | CC1CC(=O)NN=C1c1ccc(NCCN)c(N)c1 (configuration not stated) | 176 to 177
30 | CCCc1nc(C=O)cc(N)c1F | 113 to 114
31 | CCNC(=O)n1nc(Oc2c(Cl)cc(C(F)(F)F)cc2Cl)cc1C | 80 to 82
32 | Cc1c2n(c3ccc(Br)cc13)CCCC2O (configuration not stated) | 120 to 123
33 | C=Cc1cnc(C)c(O)c1CS | 198 to 200
34 | CCOC(=O)c1ncn2c1CN=C(c1ccccc1)c1cc(Cl)ccc1-2 | 174 to 175
35 | CC(C)c1nc(-c2c(F)c(F)cc(F)c2F)cc(-c2ccc(F)cc2)c1C=C(Br)Br | 77
36 | CCOC(=O)c1c[nH]c2nc(N3CCC(N)C3)c(F)cc2c1=O (configuration not stated) | 139 to 141
37 | COc1ccc2c(c1)S(=O)(=O)c1cc(OC(C)=O)c(OC)cc1N2 | 265 to 268
38 | O=[N+]([O-])c1ccc2oc(-c3sccc3CN3CCOCC3)nc2c1 | 143 to 145
39 | NS(=O)(=O)c1cc(Cl)c(Cl)c(Cl)c1 | 190 to 191
40 | O=C(NCCc1ccc(I)cc1)C(F)(F)F | 136 to 138
41 | CC(=O)OC1CCC2(C)C(=CC(=O)C3C2CCC2(C)C(OC(C)=O)CCC32)C1 (configuration not stated) | 220 to 221
42 | COc1cccc2c1C(=O)c1c(OC)cc(C#N)cc1C2=O | 266 to 268
43 | COC(=O)C(Cl)=Cc1cc(-n2ncc(C(F)(F)F)c(C)c2=O)c(F)cc1Cl | 142 to 145
44 | CNc1cc(F)ccc1C(=O)CS(C)(=O)=O | 144 to 145
45 | COC(=O)c1cc(/C=C/C(=O)O)ccc1Cl | 194
46 | CCCc1c(C(=O)C(C)C)c2ccc(C(=O)OC)cc2n1Cc1ccccc1OC | 103 to 105

More lines, now with the values ahead:

Row | melting point [°C] | Compound
47 | 164 to 166 | CCS(=O)(=O)c1cn(C)c2ccccc2c1=O
48 | 100 to 102 | COc1cc(C(=O)NS(=O)(=O)c2ccccc2C)ccc1Cc1cccc2ccc(CCCC(=O)N3CCOCC3)cc12
49 | 222 to 224 | NC(=O)c1c(Cl)c(-c2ccccc2)n2c1CN(S(=O)(=O)c1ccc(-c3ccccn3)s1)CC2
50 | 163 to 165 | COc1ccc(Oc2cccc(Oc3ccc4c(c3)OCO4)c2C(=O)O)cc1
51 | 133 to 135 | CC(C(=O)O)c1ccc(-c2ccc(Br)cc2)c(F)c1 (configuration not stated)
52 | 47.3 | CCCCCCC(C)Oc1ccc(N=Cc2ccccc2)cc1 (configuration not stated)
53 | 110 to 114 | C=CCN(c1ccccc1CC(=O)N(C)C)c1c(Cl)cccc1Cl
54 | 168 | COc1cccc2c(O)c(C(=O)NCC(=O)O)ncc12
55 | 126 to 128 | CCc1ccc(C#CC(C)N(O)C(=O)NC)cc1 (configuration not stated)
56 | 177 to 179 | CC(=O)OC1C(COC(=O)c2ccccc2)OC(n2cc(F)c(=O)[nH]c2=O)C1F (configuration not stated)
57 | 51 to 52 | CCOC(=O)c1c(C(C)C)c2ccccn2c1-c1ccc(F)cc1
58 | 174 to 176 | COc1ccc2cc(C(C)NC(=O)NO)ccc2c1 (configuration not stated)
59 | 119 to 121 | O=C(O)C(OCc1ccc(-c2ccc(Cl)cc2)cc1)c1ccccc1 (configuration not stated)
60 | 175 to 177 | COc1cc(N)c(Cl)cc1C(=O)NCC1CCN(CCCS(=O)(=O)Cc2ccc(Cl)cc2)CC1
61 | 56 to 57 | C[Si](C)(Oc1ccc(N)cc1)O[Si](C)(C)Oc1ccc(N)cc1
62 | 179 to 180 | COc1ccc(C2CC(=O)N(c3ccncc3)C2=O)cc1 (configuration not stated)
63 | 150 to 152 | COC(=O)c1cccc2[nH]c(-c3ccc(Cl)cc3)cc12
64 | 240 to 241 | O=C(O)C1=Cc2cc(C#Cc3ccccc3)ccc2OC1C(F)(F)F (configuration not stated)
65 | 120 to 122 | O=C(O)CCCN(C(=O)c1ccc(F)cc1)c1ccccc1-c1ccccc1

Row | melting point [°C] | Compound
66 | 67 to 68 | C=CCCCOc1cc(OCCCCCCCC)ccc1C(=O)O
67 | 187 to 188 | O=C(CCl)Nc1ccc2c(c1NC(=O)c1cc(C(F)(F)F)ccc1C(F)(F)F)C(=O)c1ccccc1C2=O
68 | 114 to 115 | CCOc1cccc(CC(=O)O)c1OCCCc1cn(-c2ccc(C(F)(F)F)cn2)nc1OCC
69 | 45 to 47 | CCCCCC(O)(CC#N)c1ccc(OC)cc1 (configuration not stated)
70 | 63 to 64 | CCCCNC(=O)Oc1ccc(Oc2ccc(OC)cc2)cc1
71 | 187 to 188 | CC(C)Cc1ccccc1Sc1c(O)cc(-c2cccc(-c3ccccc3)c2)oc1=O
72 | 134 | O=C(Oc1ccccc1)C(=O)Oc1ccc2c(c1)C(c1ccccc1)C(=O)O2 (configuration not stated)
73 | 186 to 187 | CSc1ccc(Cn2c(C)c(CC(=O)O)c3cc(OCc4nc5ccccc5s4)ccc32)cc1
74 | 42 to 45 | CCCCCCC/C=C/C(=O)NCC(C)C
75 | 145 to 146 | Cn1cnc2ccc(-c3nnc(CCc4cccc(F)c4)o3)cc21
76 | 70 to 71 | CCCCCCCCCCCCCCc1ccc(O)cc1
77 | 153 to 155 | CCCC(=O)c1cnc2ccsc2c1Nc1ccc(F)cc1C
78 | 186 to 189 | O=C(c1ccccc1)c1cnn2c1NCCC2c1ccncc1 (configuration not stated)
79 | 175 | O=C(C=Cc1ccc(O)cc1)N1CCc2c([nH]c3ccccc23)C1c1ccc2c(c1)OCO2 (configuration not stated)
80 | 179 to 183 | N#CC(=Cc1ccc(C=Cc2ccccc2)cc1)S(=O)(=O)c1ccccc1
81 | 202 to 204 | CC(=O)NC[C@H]1CN(c2ccc(N3CCC(n4nnc(N5CCN(Cc6ccccc6)CC5)n4)CC3)c(F)c2)C(=O)O1
82 | 198 to 203 | COc1ccccc1NC(=O)Nc1nc(N2CCOCC2)nc(N(CCC(=O)O)Cc2ccc(Cl)c(Cl)c2)n1
83 | 223 to 225 | CC(C)Cn1c(CN(C)C(N)=O)nc2c(N)nc3ccccc3c21
84 | 125 to 126 | Cc1cc(Br)cnc1NCCCNC1=NS(=O)N=C1NCc1ccc(F)cc1 (configuration not stated)

Row | melting point [°C] | Compound
85 | 129 to 131 | O=C(O)C1c2ccccc2CCc2cc(Br)ccc21 (configuration not stated)
86 | 64 to 65 | CCOC(=O)C(C)Oc1cc(F)ccc1[N+](=O)[O-] (configuration not stated)
87 | 163 to 164 | O=C1C=C(NCc2ccccc2I)CCN1
88 | 101 to 103 | CCN(CC)C(=O)COc1ccc(C(=O)CBr)cc1OC
89 | 72 to 73 | CCOC(=O)C1(c2ccccc2)CCC=CC1OC(C)=O (configuration not stated)
90 | 192 | COc1ccccc1NC(=O)Nc1nc(Oc2ccc3ccccc3c2)nc(N(CCC(=O)O)Cc2ccc(C(F)(F)F)cc2C(F)(F)F)n1
91 | 133 to 134 | Cn1cc(C(=O)Nc2ccccc2-c2ccc(F)c(Cl)c2)c(CF)n1
92 | 115 to 117 | Clc1ccc(N2C3CCC2CN(Cc2ccccc2)C3)cc1
93 | 128 to 129 | CC(C)(C)COc1cccc(C[C@@H](NC(=O)c2cccc3c2C=CCCC3)[C@@H](O)c2cccc(Cl)c2)c1 (racemic)
94 | 174 to 176 | Cn1ncnc1COc1nn2c(-c3ccccc3)nnc2c(Cl)c1N1CCCC1
95 | 223 to 227 | Cc1ccc2cccc(OCc3cccc(N)c3C)c2n1
96 | 160 | O=C(O)CCCc1cc2nc(Cl)ccc2n1S(=O)(=O)c1ccc2c(c1)OCO2
97 | 128 to 131 | O=C(O)c1ccc(N(CCCc2ccc(Cl)cc2)CCCc2ccc(Cl)cc2)cc1
98 | 153 to 154 | CCCCCC(=O)c1c[nH]c2ccccc12
99 | 246 | COc1ccc(N2CCN(c3ccc(-n4cnn(C)c4=O)cc3)CC2)cc1
100 | 74 to 78 | CC(=C(C#N)C(=O)Nc1ccccc1C(C)C)N(C)C
101 | 59 to 61 | CCCCC(=N)NC(=O)N(C)c1ccc(Cl)cc1
102 | 107 | CCc1c(-c2cc(C)c(O)c(C)c2)[nH]c2ccccc12
